Assay results as given in patent US8192962B2, “Processes for detecting toxic substances” (Daikin Industries, Ltd., priority 2001, dated 2012).

Tested on: Mitochondria-located protein genes
Test: DNA chip mRNA expression in yeast, mitochondria-located protein genes (Table 2)
Type: cell-based, Saccharomyces cerevisiae S288C
Conditions: cells incubated two hours with the chemical substance
How it was run: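 Measured as treated-to-untreated fluorescence ratio on a full-genome yeast DNA chip. Cells (S288C, YPD, 25° C.) were exposed in log phase for two hours to one chemical, dosed to curb growth without killing.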

CCCCCCCCCCCCc1ccc(S(=O)(=O)[O-])cc1.[Na+] [(17), sodium dodecylbenzosulfonate]
The level of expressed mRNA in the presence of chemical substance/The level of expressed mRNA in the absence of chemical substance (yeast gene YAL039C): 1.4 | The level of expressed mRNA in the presence of chemical substance/The level of expressed mRNA in the absence of chemical substance (yeast gene YBL022C): 0.9 | The level of expressed mRNA in the presence of chemical substance/The level of expressed mRNA in the absence of chemical substance (yeast gene YBL030C): 1.0 | The level of expressed mRNA in the presence of chemical substance/The level of expressed mRNA in the absence of chemical substance (yeast gene YBL038W): 1.2 | The level of expressed mRNA in the presence of chemical substance/The level of expressed mRNA in the absence of chemical substance (yeast gene YBL099W): 0.7 | The level of expressed mRNA in the presence of chemical substance/The level of expressed mRNA in the absence of chemical substance (yeast gene YBR003W): 1.1 | The level of expressed mRNA in the presence of chemical substance/The level of expressed mRNA in the absence of chemical substance (yeast gene YBR044C): 0.9 | The level of expressed mRNA in the presence of chemical substance/The level of expressed mRNA in the absence of chemical substance (yeast gene YBR091C): 1.0 | The level of expressed mRNA in the presence of chemical substance/The level of expressed mRNA in the absence of chemical substance (yeast gene YBR122C): 0.9 | The level of expressed mRNA in the presence of chemical substance/The level of expressed mRNA in the absence of chemical substance (yeast gene YBR185C): 0.8 | The level of expressed mRNA in the presence of chemical substance/The level of expressed mRNA in the absence of chemical substance (yeast gene YBR221C): 0.9 | The level of expressed mRNA in the presence of chemical substance/The level of expressed mRNA in the absence of chemical substance (yeast gene YBR251W): 0.9 | The level of expressed mRNA in the presence of chemical substance/The level of expressed mRNA in the absence of chemical substance (yeast gene YBR282W): 0.9 | The level of expressed mRNA in the presence of chemical substance/The level of expressed mRNA in the absence of chemical substance (yeast gene YCL057W): 0.9 | The level of expressed mRNA in the presence of chemical substance/The level of expressed mRNA in the absence of chemical substance (yeast gene YCR046C): 1.3 | The level of expressed mRNA in the presence of chemical substance/The level of expressed mRNA in the absence of chemical substance (yeast gene YCR083W): 1.3 | The level of expressed mRNA in the presence of chemical substance/The level of expressed mRNA in the absence of chemical substance (yeast gene YDL067C): 1.2 | The level of expressed mRNA in the presence of chemical substance/The level of expressed mRNA in the absence of chemical substance (yeast gene YDL181W): 1.5 | The level of expressed mRNA in the presence of chemical substance/The level of expressed mRNA in the absence of chemical substance (yeast gene YDL198C): 1.5 | The level of expressed mRNA in the presence of chemical substance/The level of expressed mRNA in the absence of chemical substance (yeast gene YDR079W): 1.1 | The level of expressed mRNA in the presence of chemical substance/The level of expressed mRNA in the absence of chemical substance (yeast gene YDR178W): 1.2 | The level of expressed mRNA in the presence of chemical substance/The level of expressed mRNA in the absence of chemical substance (yeast gene YDR231C): 1.2 | The level of expressed mRNA in the presence of chemical substance/The level of expressed mRNA in the absence of chemical substance (yeast gene YDR258C): 1.3 | The level of expressed mRNA in the presence of chemical substance/The level of expressed mRNA in the absence of chemical substance (yeast gene YDR298C): 1.1 | The level of expressed mRNA in the presence of chemical substance/The level of expressed mRNA in the absence of chemical substance (yeast gene YDR347W): 0.9 | The level of expressed mRNA in the presence of chemical substance/The level of expressed mRNA in the absence of chemical substance (yeast gene YDR377W): 1.2 | The level of expressed mRNA in the presence of chemical substance/The level of expressed mRNA in the absence of chemical substance (yeast gene YDR529C): 1.0 | The level of expressed mRNA in the presence of chemical substance/The level of expressed mRNA in the absence of chemical substance (yeast gene YEL024W): 1.1 | The level of expressed mRNA in the presence of chemical substance/The level of expressed mRNA in the absence of chemical substance (yeast gene YEL039C): 0.7 | The level of expressed mRNA in the presence of chemical substance/The level of expressed mRNA in the absence of chemical substance (yeast gene YER178W): 1.1 | The level of expressed mRNA in the presence of chemical substance/The level of expressed mRNA in the absence of chemical substance (yeast gene YFL016C): 1.2 | The level of expressed mRNA in the presence of chemical substance/The level of expressed mRNA in the absence of chemical substance (yeast gene YGL018C): 0.8 | The level of expressed mRNA in the presence of chemical substance/The level of expressed mRNA in the absence of chemical substance (yeast gene YGL187C): 0.9 | The level of expressed mRNA in the presence of chemical substance/The level of expressed mRNA in the absence of chemical substance (yeast gene YGL191W): 1.2 | The level of expressed mRNA in the presence of chemical substance/The level of expressed mRNA in the absence of chemical substance (yeast gene YGR008C): 1.7 | The level of expressed mRNA in the presence of chemical substance/The level of expressed mRNA in the absence of chemical substance (yeast gene YGR028W): 1.5 | The level of expressed mRNA in the presence of chemical substance/The level of expressed mRNA in the absence of chemical substance (yeast gene YGR062C): 0.9 | The level of expressed mRNA in the presence of chemical substance/The level of expressed mRNA in the absence of chemical substance (yeast gene YGR076C): 0.9 | The level of expressed mRNA in the presence of chemical substance/The level of expressed mRNA in the absence of chemical substance (yeast gene YGR082W): 0.9 | The level of expressed mRNA in the presence of chemical substance/The level of expressed mRNA in the absence of chemical substance (yeast gene YGR174C): 1.3 | The level of expressed mRNA in the presence of chemical substance/The level of expressed mRNA in the absence of chemical substance (yeast gene YGR244C): 1.9 | The level of expressed mRNA in the presence of chemical substance/The level of expressed mRNA in the absence of chemical substance (yeast gene YHR008C): 0.9 | The level of expressed mRNA in the presence of chemical substance/The level of expressed mRNA in the absence of chemical substance (yeast gene YIL155C): 1.1 | The level of expressed mRNA in the presence of chemical substance/The level of expressed mRNA in the absence of chemical substance (yeast gene YJL096W): 1.1 | The level of expressed mRNA in the presence of chemical substance/The level of expressed mRNA in the absence of chemical substance (yeast gene YJL102W): 1.0 | The level of expressed mRNA in the presence of chemical substance/The level of expressed mRNA in the absence of chemical substance (yeast gene YJL133W): 0.8 | The level of expressed mRNA in the presence of chemical substance/The level of expressed mRNA in the absence of chemical substance (yeast gene YJL166W): 1.7 | The level of expressed mRNA in the presence of chemical substance/The level of expressed mRNA in the absence of chemical substance (yeast gene YJL180C): 0.9 | The level of expressed mRNA in the presence of chemical substance/The level of expressed mRNA in the absence of chemical substance (yeast gene YJR045C): 0.7 | The level of expressed mRNA in the presence of chemical substance/The level of expressed mRNA in the absence of chemical substance (yeast gene YJR077C): 1.0
